According to US20210395679A1, “IN VITRO CELL CULTURE SYSTEM FOR PRODUCING HEPATOCYTE-LIKE CELLS AND USES THEREOF” (CHILDREN'S HOSPITAL MEDICAL CENTER, priority 2018, published 2021):

Target: T1, MRP4 (Homo sapiens, UniProt O15439)
T1 sequence (O15439 1-1325): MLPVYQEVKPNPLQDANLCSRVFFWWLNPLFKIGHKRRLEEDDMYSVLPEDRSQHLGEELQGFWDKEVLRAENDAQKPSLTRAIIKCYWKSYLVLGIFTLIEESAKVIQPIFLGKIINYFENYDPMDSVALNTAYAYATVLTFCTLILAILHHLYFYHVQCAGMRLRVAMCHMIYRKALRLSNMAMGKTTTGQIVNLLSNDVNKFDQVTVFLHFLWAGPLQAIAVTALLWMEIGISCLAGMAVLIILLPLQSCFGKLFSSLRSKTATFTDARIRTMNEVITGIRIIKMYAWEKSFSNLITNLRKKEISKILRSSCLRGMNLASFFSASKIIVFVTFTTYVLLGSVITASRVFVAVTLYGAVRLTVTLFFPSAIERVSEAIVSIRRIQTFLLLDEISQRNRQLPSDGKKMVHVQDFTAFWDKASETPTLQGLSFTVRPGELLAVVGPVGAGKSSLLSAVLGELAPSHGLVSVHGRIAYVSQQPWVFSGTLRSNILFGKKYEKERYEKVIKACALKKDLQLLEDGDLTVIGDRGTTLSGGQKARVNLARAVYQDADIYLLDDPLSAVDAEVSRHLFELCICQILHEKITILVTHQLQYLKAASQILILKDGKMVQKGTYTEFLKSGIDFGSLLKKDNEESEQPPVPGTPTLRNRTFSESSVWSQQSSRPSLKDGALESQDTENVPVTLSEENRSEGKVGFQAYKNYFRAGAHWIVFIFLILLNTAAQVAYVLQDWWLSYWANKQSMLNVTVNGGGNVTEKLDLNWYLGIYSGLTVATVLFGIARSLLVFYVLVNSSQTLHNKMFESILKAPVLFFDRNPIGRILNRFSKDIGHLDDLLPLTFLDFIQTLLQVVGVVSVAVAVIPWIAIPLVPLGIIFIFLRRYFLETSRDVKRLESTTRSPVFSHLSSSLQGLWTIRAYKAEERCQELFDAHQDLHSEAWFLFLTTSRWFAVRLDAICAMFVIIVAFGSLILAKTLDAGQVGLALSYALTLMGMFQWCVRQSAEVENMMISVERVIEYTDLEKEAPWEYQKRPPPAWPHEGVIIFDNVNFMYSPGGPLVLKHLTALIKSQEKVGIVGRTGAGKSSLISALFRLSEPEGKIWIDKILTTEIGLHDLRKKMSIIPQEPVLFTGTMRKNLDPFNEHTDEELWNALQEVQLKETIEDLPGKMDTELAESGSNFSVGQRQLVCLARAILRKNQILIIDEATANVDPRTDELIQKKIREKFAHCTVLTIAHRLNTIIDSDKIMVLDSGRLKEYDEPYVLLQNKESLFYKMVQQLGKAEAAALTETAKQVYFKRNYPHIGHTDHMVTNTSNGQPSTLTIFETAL
Assay: Wash-out assay of intracellular-to-basolateral D4-TCA export with or without MRP4 inhibitor
Details: normal i-Hep, 1 h D4-TCA 10 μM in the lower chamber, fresh medium with or without inhibitor

Structure (SMILES): Cn1c(CSc2nc3ccccc3s2)n[nH]c1=S [Ceefourin1]
- basolateral export of D4-TCA towards the lower chamber: did not alter the basolateral export
